Results on 13 molecules are retold here after patent publication US12371454B2, “Cyclic peptide compound having Kras inhibitory action” (priority 2019, dated 2025).

Starred links: 1 amine or outer side, 2 acyl side, 3 side chain; linkers in the order of their positions; H or OH if unused. Positions of bridges follow the written chain, without caps; N, C: chain ends. Non-standard residues stand in square brackets, D forms with d. Residues, ends and D or L forms follow the SMILES beside them. *: point of attachment. hPhe(3-Cl-4-CF3) = N[C@@H](CCc1ccc(C(F)(F)F)c(Cl)c1)C(=O)O; NMeDab(N,N-(CH2CF2CH2)) = CN[C@@H](CCN1CC(F)(F)C1)C(=O)O; hPhe(3-F,4-CF3) = N[C@@H](CCc1ccc(C(F)(F)F)c(F)c1)C(=O)O; hPhe(4-CF3) = N[C@@H](CCc1ccc(C(F)(F)F)cc1)C(=O)O; Phe(2-OCF3) = N[C@@H](Cc1ccccc1OC(F)(F)F)C(=O)O; NMePhe(4-Cl) = CN[C@@H](Cc1ccc(Cl)cc1)C(=O)O; NMePhe(4-Me) = CN[C@@H](Cc1ccc(C)cc1)C(=O)O; NMePhe(4-F) = CN[C@@H](Cc1ccc(F)cc1)C(=O)O; NMedβ3hAla = C[C@H](CC(=O)[*:2])N(C)[*:1]; Leu(4,5-dehydro) = C=C(C)C[C@H](N)C(=O)O; NMeAla(cPent) = CN[C@@H](CC1CCCC1)C(=O)O; NMePhe(2-F) = CN[C@@H](Cc1ccccc1F)C(=O)O; NMeGly(cPent) = CN[C@H](C(=O)O)C1CCCC1; Phe(3-I) = N[C@@H](Cc1cccc(I)c1)C(=O)O; Pro(4,4-F2) = O=C(O)[C@@H]1CC(F)(F)CN1; Phe(2-F) = N[C@@H](Cc1ccccc1F)C(=O)O; NMeY = CN[C@@H](Cc1ccc(O)cc1)C(=O)O; NMeCha = CN[C@@H](CC1CCCCC1)C(=O)O; NMeChg = CN[C@H](C(=O)O)C1CCCCC1; NMeF = CN[C@@H](Cc1ccccc1)C(=O)O; NMeI = CC[C@H](C)[C@H](NC)C(=O)O; NMeD = CN[C@@H](CC(=O)O)C(=O)O; NMeL = CN[C@@H](CC(C)C)C(=O)O; NMeNva = CCC[C@H](NC)C(=O)O; d(β3hA) = C[C@@H](N)CC(=O)O; NMeS = CN[C@@H](CO)C(=O)O; NMeA = CN[C@@H](C)C(=O)O; NMeAib = CNC(C)(C)C(=O)O; Nle = CCCC[C@H](N)C(=O)O; Piperidide = C1CCN(*)CC1; Pyrrolidide = C1CCN(*)C1; Ac5c = NC1(C(=O)O)CCCC1; Aze = O=C(O)[C@@H]1CCN1; Ac4c = NC1(C(=O)O)CCC1; CH2CMe2OH = CC(C)(O)C*; Aib = CC(C)(N)C(=O)O; Isopentyl = CC(C)CC*; Sar = CNCC(=O)O

This experiment deals with T1, Kras and SOS1 (biotin-tagged human Kras loaded with GDP, His-tagged human SOS1) (Homo sapiens, UniProt P01116, G12D).
T1 construct: made in house; host or cells: E. coli (stated for Kras only)
T1 sequence (P01116 1-188 isoform P01116-2 G12D): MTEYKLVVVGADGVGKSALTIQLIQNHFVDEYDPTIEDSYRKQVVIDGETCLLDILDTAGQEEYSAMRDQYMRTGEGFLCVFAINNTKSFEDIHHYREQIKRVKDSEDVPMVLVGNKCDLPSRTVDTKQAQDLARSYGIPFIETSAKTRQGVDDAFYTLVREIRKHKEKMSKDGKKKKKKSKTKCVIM
In words: Protein-protein interaction inhibition between Kras and SOS1 (KrasGl2D-SOS PPI) using AlphaScreen. Format: binding. Particulars: AlphaScreen; biotin-tagged human Kras loaded with GDP, His-tagged human SOS1; read-out: KRAS G12D-SOS PPI IC50. In short, it runs like this: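 Binding between SOS1 and Kras is detected as bead-proximity luminescence: illuminate Ni-conjugated donors (680 nm), collect 520-620 nm emission from streptavidin-conjugated acceptors; Kras carries biotin and GDP loaded after purification, SOS1 carries a His tag.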
As for `CC[C@H](C)[C@@H]1NC(=O)[C@H](CC(C)C)N(C)C(=O)C[C@@H](C(=O)N2CCCCC2)N(C)C(=O)[C@H]([C@@H](C)CC)N(C)C(=O)C2(CCCC2)NC(=O)[C@H](Cc2ccc(F)cc2)N(C)C(=O)[C@H](CCc2ccc(C(F)(F)F)c(Cl)c2)NC(=O)CN(C)C(=O)[C@H](Cc2ccc(C)cc2)N(C)C(=O)[C@@H]2CCN2C(=O)[C@H](C)N(C)C1=O` [Compound 1876] ([NMeL]I[NMeA][Aze][NMePhe(4-Me)][Sar][hPhe(3-Cl-4-CF3)][NMePhe(4-F)][Ac5c][NMeI][NMeD]-Piperidide; lactam N-11), the IC50 (in general, the concentration needed to halve the response being measured) was 98 nM.

As for `CC[C@H](C)[C@@H]1NC(=O)[C@H](CC(C)C)N(C)C(=O)C[C@@H](C)N(C)C(=O)[C@H](CC2CCCC2)N(C)C(=O)C2(CCCC2)NC(=O)[C@@H]2CCCN2C(=O)[C@H](CCc2ccc(C(F)(F)F)c(Cl)c2)NC(=O)CN(C)C(=O)[C@H](CC2CCCCC2)N(C)C(=O)CN(C)C(=O)CN(C)C1=O` [Compound 991] (cyclo([Ac5c][NMeAla(cPent)][NMedβ3hAla][NMeL]I[Sar][Sar][NMeCha][Sar][hPhe(3-Cl-4-CF3)]P)), the half-maximal inhibitory concentration (IC50) turned out to be 76 nM.

As to `CC[C@H](C)[C@@H]1NC(=O)[C@H](C)N(C)C(=O)C[C@@H](C(=O)N2CCCC2)NC(=O)[C@H](CC(C)C)NC(=O)[C@H](Cc2ccccc2)N(C)C(=O)[C@H](CC(C)C)NC(=O)[C@H](CCc2ccc(C(F)(F)F)cc2)NC(=O)CN(C)C(=O)[C@H](Cc2ccc(Cl)cc2)N(C)C(=O)CN(C)C(=O)CN(C)C1=O` [Compound 372] ([NMeA]I[Sar][Sar][NMePhe(4-Cl)][Sar][hPhe(4-CF3)]L[NMeF]LD-Pyrrolidide; lactam N-11), the half-inhibitory concentration (IC50) was found to be 130 nM. For `CCC[C@H]1C(=O)N[C@@H]([C@@H](C)CC)C(=O)N(C)CC(=O)N(C)CC(=O)N(C)[C@@H](Cc2ccc(C)cc2)C(=O)N(C)CC(=O)N[C@@H](CCc2ccc(C(F)(F)F)c(Cl)c2)C(=O)N2CC(F)(F)C[C@H]2C(=O)NC2(CCCC2)C(=O)N(C)[C@@H](C2CCCCC2)C(=O)N(C)[C@H](C(=O)N2CCCC2)CC(=O)N1C` [Compound 1296] ([NMeNva]I[Sar][Sar][NMePhe(4-Me)][Sar][hPhe(3-Cl-4-CF3)][Pro(4,4-F2)][Ac5c][NMeChg][NMeD]-Pyrrolidide; lactam N-11), the IC50 is 0.59 nM. As for `CCCC[C@@H]1NC(=O)[C@H](CC(C)C)N(C)C(=O)C[C@@H](C)NC(=O)[C@H](CC(C)C)N(C)C(=O)C2(CCCC2)NC(=O)[C@@H]2CCCN2C(=O)[C@H](CCc2ccc(C(F)(F)F)c(F)c2)NC(=O)CN(C)C(=O)[C@H](CC2CCCCC2)N(C)C(=O)CN(C)C(=O)CN(C)C1=O` [Compound 1490] (cyclo([Ac5c][NMeL][d(β3hA)][NMeL][Nle][Sar][Sar][NMeCha][Sar][hPhe(3-F,4-CF3)]P)), the figure is 320 nM; as for `C=C(C)C[C@@H]1NC(=O)[C@H](Cc2cccc(I)c2)NC(=O)CN(C)C(=O)[C@H](CC2CCCC2)N(C)C(=O)[C@@H]2CCN2C(=O)[C@H](C)N(C)C(=O)[C@H]([C@@H](C)CC)NC(=O)[C@H](CC(C)C)N(C)C(=O)C[C@@H](C(=O)N2CCCCC2)N(C)C(=O)[C@H](CC(C)C)NC(=O)C(C)(C)N(C)C1=O` [Compound 1405] ([NMeL]I[NMeA][Aze][NMeAla(cPent)][Sar][Phe(3-I)][Leu(4,5-dehydro)][NMeAib]L[NMeD]-Piperidide; lactam N-11), 82 nM; as for `CC[C@H](C)[C@@H]1NC(=O)[C@H](CC(C)C)N(C)C(=O)C[C@@H](C(=O)N2CCCCC2)N(C)C(=O)[C@H](CC(C)C)N(C)C(=O)C(C)(C)NC(=O)[C@H](COCC(C)(C)O)N(C)C(=O)[C@H](CCc2ccc(C(F)(F)F)c(F)c2)NC(=O)CN(C)C(=O)[C@H](COCCC(C)C)N(C)C(=O)CN(C)C(=O)CN(C)C1=O` [Compound 1532] ([NMeL]I[Sar][Sar][NMeS](Isopentyl)[Sar][hPhe(3-F,4-CF3)][NMeS](CH2CMe2OH)[Aib][NMeL][NMeD]-Piperidide; lactam N-11), 4.8 nM.

On to `CC[C@H](C)[C@@H]1NC(=O)[C@H](CC(C)C)N(C)C(=O)C[C@@H](C(=O)N2CCCCC2)N(C)C(=O)[C@H](CC(C)C)NC(=O)C(C)(C)N(C)C(=O)[C@H](Cc2ccccc2OC(F)(F)F)NC(=O)[C@H](Cc2cccc(I)c2)NC(=O)CN(C)C(=O)[C@H](Cc2ccc(C)cc2)N(C)C(=O)[C@@H]2CCN2C(=O)[C@H](C)N(C)C1=O` [Compound 1129] ([NMeL]I[NMeA][Aze][NMePhe(4-Me)][Sar][Phe(3-I)][Phe(2-OCF3)][NMeAib]L[NMeD]-Piperidide; lactam N-11), for which the IC50 was determined as 150 nM. Consider `CC[C@H](C)[C@@H]1NC(=O)[C@H](C)N(C)C(=O)C[C@@H](C)NC(=O)[C@H](C2CCCC2)N(C)C(=O)C2(CCCC2)NC(=O)[C@@H]2CCCN2C(=O)[C@H](CCc2ccc(C(F)(F)F)c(Cl)c2)NC(=O)CN(C)C(=O)[C@H](Cc2ccccc2F)N(C)C(=O)[C@@H]2CCCN2C(=O)CN(C)C1=O` [Compound 1077] (cyclo([Ac5c][NMeGly(cPent)][d(β3hA)][NMeA]I[Sar]P[NMePhe(2-F)][Sar][hPhe(3-Cl-4-CF3)]P)), for which the half-inhibitory concentration (IC50) came out at 34 nM.

As for `CCCC[C@@H]1NC(=O)[C@H](Cc2ccccc2F)NC(=O)CN(C)C(=O)[C@H](Cc2ccc(OC)cc2)N(C)C(=O)CN(C)C(=O)CN(C)C(=O)[C@H]([C@@H](C)CC)NC(=O)[C@H](CC(C)C)N(C)C(=O)C[C@@H](C(=O)N2CCCCC2)N(C)C(=O)[C@H](CC(C)C)NC(=O)[C@H](Cc2ccc(OC)cc2)N(C)C1=O` [Compound 681] ([NMeL]I[Sar][Sar][NMeY](Me)[Sar][Phe(2-F)][Nle][NMeY](Me)L[NMeD]-Piperidide; lactam N-11), the IC50 came out at 5.9 nM.

Consider `CC[C@H](C)[C@@H]1NC(=O)[C@H](CC(C)C)N(C)C(=O)C[C@@H](C(=O)N(C)C)N(C)C(=O)[C@H](C2CCCC2)N(C)C(=O)[C@H](COC)NC(=O)[C@H](CCN2CC(F)(F)C2)N(C)C(=O)[C@H](CCc2ccc(C(F)(F)F)c(Cl)c2)NC(=O)CN(C)C(=O)[C@H](CC2CCCCC2)N(C)C(=O)[C@@H]2CCN2C(=O)[C@H](C)N(C)C1=O` [Compound 130] ([NMeL]I[NMeA][Aze][NMeCha][Sar][hPhe(3-Cl-4-CF3)][NMeDab(N,N-(CH2CF2CH2))]S(Me)[NMeGly(cPent)][NMeD]-NMe2; lactam N-11), for which the IC50 was determined as 10 nM. As for `CC[C@H](C)[C@@H]1NC(=O)[C@H](C)N(C)C(=O)C[C@@H](C)NC(=O)[C@H](C2CCCC2)N(C)C(=O)C2(CCCC2)NC(=O)[C@@H]2CCCN2C(=O)[C@H](CCc2ccc(C(F)(F)F)c(Cl)c2)NC(=O)[C@H]2CCCN2C(=O)[C@H](CC2CCCCC2)N(C)C(=O)CN(C)C(=O)CN(C)C1=O` [Compound 1543] (cyclo([Ac5c][NMeGly(cPent)][d(β3hA)][NMeA]I[Sar][Sar][NMeCha][dP][hPhe(3-Cl-4-CF3)]P)), the figure is 160 nM.

For the molecule `CC[C@H](C)[C@@H]1NC(=O)[C@H](CC(C)C)N(C)C(=O)C[C@@H](C)N(C)C(=O)[C@H](C2CCCCC2)N(C)C(=O)C2(CCC2)NC(=O)[C@@H]2CC(F)(F)CN2C(=O)[C@H](CCc2ccc(C(F)(F)F)c(Cl)c2)NC(=O)CN(C)C(=O)[C@H](Cc2ccc(C)cc2)N(C)C(=O)CN(C)C(=O)CN(C)C1=O` [Compound 375] (cyclo([Ac4c][NMeChg][NMedβ3hAla][NMeL]I[Sar][Sar][NMePhe(4-Me)][Sar][hPhe(3-Cl-4-CF3)][Pro(4,4-F2)])), the IC50 turned out to be 12 nM.
